The results in this text go back to patent publication US8175860B2, “Method of inhibiting the growth of Helicobacter pylori” (priority 2009, dated 2012).

Assay [1] deals with HpSK (H. pylori shikimate kinase) (Helicobacter pylori, UniProt P56073). The experiment in a line: Shikimate kinase inhibitor activity assay (pyruvate kinase/lactate dehydrogenase coupled), HpSK. It is filed as biochemical. Conditions: for inhibition mode with respect to shikimate (SKM): ATP fixed at 2.5 mM, shikimate varied; for inhibition mode with respect to ATP: shikimate fixed at 1.6 mM, ATP varied; for inhibitory effect against shikimate kinase (in words): preliminary screening at 50 μM. The procedure:
The shikimate kinase activity was determined by coupling the release of ADP from the shikimate kinase-catalyzed reaction to the oxidation of NADH using pyruvate kinase (EC 2.7.1.40) and lactate dehydrogenase (EC 1.1.1.27) as coupling enzymes. Shikimate-dependent oxidation of NADH was monitored by the decrease in A340 (ε=6,200 M^−1 cm^−1). The assay was carried out at 25° C. in a mixture containing 100 mM Tris/HCl/KOH buffer, pH 7.5, 50 mM KCl, 5 mM MgCl2, 1.6 mM shikimic acid, 2.5 mM ATP, 1 mM phosphoenolpyruvate, 0.1 mM NADH, 2.5 units of pyruvate kinase/ml, and 2.7 units of lactate dehydrogenase/ml. All assays were conducted in a 96-well microplate spectrophotometer (FLUOstar OPTIMA, BMG LABTECH). Kinetic parameters were obtained using nonlinear regression fitting to the Michaelis-Menten equation. The apparent Km values for each substrate were determined as follows: for ATP the shikimate concentration ([shikimate]) was maintained at 1.6 mM and the [ATP] varied in the range from 0.001 mM to 2.5 mM; for shikimate the [ATP] was maintained at 2.5 mM and the [shikimate] varied in the range from 0.005 to 1.6 mM. The kinetic data were fit to the appropriate equations using the program GraphPad Prism 4 (Software Inc., USA). The kinetic data for determining the Km values were fit to
using the program GraphPad Prism 4 where v was the initial velocity, Vmax was the maximum velocity, Km was the Michaelis constant and [S] was the substrate (shikimate or ATP) concentration. The IC50 value for HpSK inhibition by inhibitors was determined by fitting data to
where v was the initial velocity, Vmax was the maximum velocity, Vmin was the minimum velocity, [I] was the concentration of compounds and n was the Hill slope.
Using GEMDOCK virtual docking and pharmarcophore model, several compounds were selected to assay inhibitor activity for verifying the inhibiting effect on HpSK and MtSK enzyme. Based on the procedure of enzyme activity assay, the initial velocities of the enzyme activity were determined in the presence of compounds (50 μM) dissolved in dimethylsulfoxide (DMSO). The final DMSO concentration in all assay mixtures was 5% (v/v). The assay buffer contained 100 mM Tris/HCl/KOH (pH 7.5), 1.6 mM shikimic acid, 2.5 mM ATP. The reaction was initiated by the addition of the diluted HpSK and MtSK enzyme (85 nM). After the preliminary screening, several compounds were identified to inhibit HpSK and MtSK enzyme activity. The initial velocities of the enzyme activity were determined in the presence of various concentrations of these compounds to investigate the dose-dependent inhibition effects. IC50 values of these compounds were obtained by fitting the data to a sigmoid dose-response equation of the GraphPad Prism 4. Afterwards, inhibitor modality was determined by measuring the effects of inhibitor concentrations on the enzymatic activity as a function of substrate concentration. In the inhibition experiment where the ATP concentration was fixed at 2.5 mM, shikimate was a varied substrate (0.06, 0.12, 0.24, 0.48, and 0.96 mM) when the concentration of inhibitor was varied from 0 to 50 μM. In parallel, in the inhibition experiment where the shikimate concentration was fixed at 1.6 mM, ATP was a varied substrate (0.06, 0.12, 0.24, 0.48, and 0.96 mM) when the concentration of inhibitor was varied from 0 to 50 μM.

Assay [2] concerns the target MtSK (M. tuberculosis shikimate kinase) (Mycobacterium tuberculosis, UniProt P9WPY3). Briefly: Shikimate kinase inhibitor activity assay (pyruvate kinase/lactate dehydrogenase coupled), MtSK. The format is biochemical. The following applies: for inhibition mode with respect to shikimate (SKM): ATP fixed at 2.5 mM, shikimate varied; for inhibition mode with respect to ATP: shikimate fixed at 1.6 mM, ATP varied; for inhibitory effect against shikimate kinase (in words): preliminary screening at 50 μM.

Setting [3] is: with respect to ATP, read-out: αKi, ATP.
Setting [4] is: with respect to shikimate, read-out: αKi, SKM.
The mark [5] stands for this setting: MtSK, with respect to ATP, read-out: αKi, ATP.
[6] abbreviates: MtSK, with respect to shikimate, read-out: αKi, SKM.

Where “and” joins values, the source holds several entries; their conditions need not be identical. Equal values may be shown once. Read-outs that look alike come from different tables or passages of the source. Where only a bound is given, the exact number is not on record here.

HpSK (H. pylori shikimate kinase), sequence (P56073 whole entry): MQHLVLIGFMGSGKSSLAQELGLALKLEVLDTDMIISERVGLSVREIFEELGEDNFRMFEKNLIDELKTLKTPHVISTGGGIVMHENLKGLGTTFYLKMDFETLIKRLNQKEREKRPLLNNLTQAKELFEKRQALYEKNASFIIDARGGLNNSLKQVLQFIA
MtSK (M. tuberculosis shikimate kinase), sequence (P9WPY3 whole entry): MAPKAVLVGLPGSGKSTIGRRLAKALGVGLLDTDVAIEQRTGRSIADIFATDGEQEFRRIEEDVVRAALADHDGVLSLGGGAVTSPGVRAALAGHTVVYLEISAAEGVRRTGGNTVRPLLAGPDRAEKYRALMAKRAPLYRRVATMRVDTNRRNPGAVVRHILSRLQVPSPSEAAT

Take `Nc1ccc2c(O)c(/N=N/c3ccc4c(O)cc(S(=O)(=O)O)cc4c3)c(S(=O)(=O)O)cc2c1` [Compound 8, (E)-7-amino-4-hydroxy-3-((5-hydroxy-7-sulfonatonaphthalen-2-yl)diazenyl)naphthalene-2-sulfonate]: the values for the IC50 in assay [1] and in assay [2] (MtSK) were 4.91 µM and 1.55 µM, respectively. Further, the “inhibition mode with respect to shikimate (SKM)” value (from here on “inhibition mode … (SKM)”) in assay [1] is on record as “Competitive”; in assay [1] (listed as NSC136535) it was “competitive”; in assay [2] (MtSK) it was “Competitive”; in assay [2] (MtSK, listed as NSC136535) it was “competitive”. Also, the “inhibition mode with respect to ATP” value in assay [1] and in assay [2] (MtSK) was “Competitive” throughout. Also, the Ki was 1.85 µM in assay [1] (setting [3]), 1.82 µM in assay [1] (setting [4]), 0.24 µM in assay [2] (setting [5]) and 0.61 µM in assay [2] (setting [6]).

For the compound `N#C/C(=C/c1ccc(O)c(O)c1)C(=O)c1ccc(O)c(O)c1` [Compound 9, (Z)-2-(3,4-dihydroxybenzoyl)-3-(3,4-dihydroxyphenyl)acrylonitrile, reference compound], the concentration for half-maximal inhibition (IC50) in assay [1] amounted to 2.3 µM. In addition, the “inhibition mode … (SKM)” value was “Noncompetitive” in assay [1]; “noncompetitive” in assay [1] (listed as AG538); “Noncompetitive” in assay [2] (MtSK); “noncompetitive” in assay [2] (MtSK, listed as AG538). Besides, the “inhibitory effect against shikimate kinase (in words)” value in assay [1] and in assay [2] (MtSK) was “showed inhibitory results” throughout. Besides, the “inhibition mode with respect to ATP” value in assay [1] and in assay [2] (MtSK) was “Competitive” each time. Further, the Ki in assay [1] (setting [3]) was 3.08 µM; in assay [1] (setting [4]), 5.35 µM.

In the case of “5-((E)-(4-((E)-(2-benzyl-8-hydroxy-6-sulfonatonaphthalen-1-yl)diazenyl)phenyl)diazenyl)-2-hydroxybenzoate [Compound 7]”, the values for the IC50 in assay [1] and in assay [2] (MtSK) were 6.1 µM and 2.77 µM, respectively. The “inhibition mode … (SKM)” value in assay [1] and in assay [2] (MtSK) was “Competitive” in each case. Besides, the “inhibition mode with respect to ATP” value in assay [1] and in assay [2] (MtSK) was “Competitive” each time. The Ki was 1.97 µM in assay [1] (setting [3]), 2.42 µM in assay [1] (setting [4]), 0.73 µM in assay [2] (setting [5]) and 1.04 µM in assay [2] (setting [6]).

Turning to `O=C(Nc1ccc2c(O)cc(S(=O)(=O)O)cc2c1)Nc1ccc2c(O)cc(S(=O)(=O)O)cc2c1` [Compound 5, 7,7′-carbonylbis(azanediyl)bis(4-hydroxynaphthalene-2-sulfonate)], the IC50 in assay [1] was ≤ 10 µM and 7.77 µM; in assay [2] (MtSK), 2.76 µM. Also, the “inhibition mode … (SKM)” value in assay [1] was “Noncompetitive”; in assay [1] (listed as NSC45174), “noncompetitive”; in assay [2] (MtSK) it was “Noncompetitive”; in assay [2] (MtSK, listed as NSC45174), “noncompetitive”. The “inhibition mode with respect to ATP” value in assay [1] and in assay [2] (MtSK) was “Competitive” throughout. Also, the Ki in assay [1] (setting [3]) stood at 1.74 µM; in assay [1] (setting [4]) it was 12.8 µM; in assay [2] (setting [5]) it was 0.35 µM; in assay [2] (setting [6]), 2.67 µM.

On to “5-((E)-(4-((E)-(4-((E)-(2,4-diamino-5-methylphenyl)diazenyl)-3-methyl-2-sulfonatophenyl)diazenyl)phenyl)diazenyl)-2-hydroxybenzoate [Compound 6]”, for which the IC50 was found to be 4.78 µM in assay [1] and 1.5 µM in assay [2] (MtSK). Moreover, the “inhibition mode … (SKM)” value in assay [1] and in assay [2] (MtSK) was “Competitive” in each case. Also, the “inhibition mode with respect to ATP” value in assay [1] and in assay [2] (MtSK) was “Competitive” throughout. Besides, the Ki stood at 1.05 µM in assay [1] (setting [3]), 1.73 µM in assay [1] (setting [4]), 0.32 µM in assay [2] (setting [5]) and 0.66 µM in assay [2] (setting [6]).

As for `O=C1c2cccc3cc([N+](=O)[O-])cc(c23)C(=O)N1c1ccc(S(=O)(=O)Nc2ccc(C(F)(F)F)cc2)cc1` [Compound 1, 4-(5-nitro-1,3-dioxo-1H-benzo[de]isoquinolin-2(3H)-yl)-N-(4-(trifluoromethyl)phenyl)benzenesulfonamide], the IC50 was 79.3 µM in assay [1] and > 50 µM in assay [2] (MtSK).

Consider `O=C(NNC(=O)C1c2ccccc2Oc2ccccc21)c1cccc(F)c1` [Compound 3, N′-(3-fluorobenzoyl)-9H-xanthene-9-carbohydrazide], for which the IC50 was 40.2 µM in assay [1] and > 50 µM in assay [2] (MtSK).

As for `Cc1cc(/N=N/c2ccc(/N=N/c3ccc(/N=N/c4ccc(O)c(C(=O)O)c4)cc3)c(S(=O)(=O)O)c2C)c(N)cc1N` [Compound 6, 5-((E)-(4-((E)-(4-((E)-(2,4-diamino-5-methylphenyl)diazenyl)-3-methyl-2-sulfonatophenyl)diazenyl)phenyl)diazenyl)-2-hydroxybenzoate], the IC50 in assay [1] and in assay [2] (MtSK) was ≤ 10 µM in each case.

Turning to `N=C(NO)c1ccc(Oc2cc(Cl)cc(Cl)c2)c([N+](=O)[O-])c1` [Compound 4, (Z)-4-(3,5-dichlorophenoxy)-N′-hydroxy-3-nitrobenzimidamide], the IC50 was 89.8 µM in assay [1] and > 50 µM in assay [2] (MtSK).

For `O=C1Nc2ccc(I)cc2/C1=C/c1cc(Br)c(O)c(Br)c1` [Compound 10, (Z)-3-(3,5-dibromo-4-hydroxybenzylidene)-5-iodoindolin-2-one, reference compound], the IC50 came out at 31.4 µM in assay [1] and 29.6 µM in assay [2]. Further, the “inhibitory effect against shikimate kinase (in words)” value in assay [1] and in assay [2] (MtSK) was “showed inhibitory results” in each case.

On to `O=C(O)c1cc(/N=N/c2ccc(/N=N/c3c(Cc4ccccc4)ccc4cc(S(=O)(=O)O)cc(O)c34)cc2)ccc1O` [Compound 7, 5-((E)-(4-((E)-(2-benzyl-8-hydroxy-6-sulfonatonaphthalen-1-yl)diazenyl)phenyl)diazenyl)-2-hydroxybenzoate], for which the IC50 in assay [1] and in assay [2] (MtSK) was ≤ 10 µM in each case.

As a reminder, the IC50 is the concentration that inhibits the measured activity by half. A higher IC50 goes with a need for much substance.
